{
  "source": "patent US8586007B2",
  "about": "“Co-polymer stabilizers for hydrofluoroalkane dispersions” (Wayne State University, priority 2007, dated 2013)",
  "key": {"[1]": {"test": "Colloidal probe microscopy (CPM): adhesion force (Fad) in liquid HPFP in the presence of surfactants and/or cosolvents", "format": "physicochemical", "conditions": "298 K", "source_text": "Preparation and Characterization of the Drug-Modified AFM Cantilever (Colloidal Probe). Single salbutamol crystals were glued onto silicon nitride contact-mode cantilevers (NP-20) with the help of an AFM (Pico LE, Molecular Imaging). In brief, the cantilever was first positioned above a tiny drop of epoxy (Epotek 377). The AFM cantilever was then slowly approached toward the epoxy. A tiny amount of it was then carefully transferred onto the AFM tip. A similar procedure was used to attach the drug particle to the AFM tip containing the epoxy. The particle-modified AFM tip was then kept at room temperature for 24 h to allow the complete curing of the epoxy. SEM images of the drug-modified cantilevers were obtained after the adhesion force measurements to verify the integrity and quality of the probe. The spring constant of the drug-modified cantilevers was determined using a module attached to the AFM and the MI Thermal K 1.02 software. Preparation and Characterization of the Drug Crystal Substrate. Salbutamol was first dissolved in ethanol to saturation. The solution was then transferred onto a cover glass previously treated with piranha solution (7:3 v/v H2SO4/H2O2). The system was kept inside a scaled Petri dish. The crystallization process of salbutamol was induced by the controlled evaporation of ethanol. Optical microscopy was used to observe the crystal morphology. The surface topography of the salbutamol crystal was examined by AFM under tapping mode, with a silicon cantilever (BS-Multi 75). Colloidal Probe Microscopy (CPM). The force of adhesion (Fad) between the salbutamol-modified cantilever and a smooth salbutamol crystal substrate was determined by CPM, at 298 K. A fluid cell was used to perform the experiments in liquid HPFP. The procedure adopted here is similar to that used to investigate the effect of other excipients on drug-drug interactions. FIG. 2a is the schematic diagram of a typical force curve obtained during the CPM measurements. The Fad is determined as the product of the spring constant (k) of the drug-modified AFM cantilever and the maximum cantilever deflection (x) during the retraction stage of the force measurement; […]; as schematically shown in FIG. 2a. Several contact points, randomly distributed on the crystal surfaces over a 9 μm×9 μm area, were selected for the measurements. At each contact point, 25 force-distance curves were measured. The tip was moved toward and away from the substrate in a range of 2000 nm and a sweep duration of 2 s. The histograms of the measured Fad were fit to a Gaussian distribution, from which an average Fad and deviation were obtained. The same drug probe was used throughout the measurements to guarantee a constant contact area. Great care was taken to guarantee the integrity of the drug probe. Since the solubility of salbutamol in HPFP is negligible, before each new adhesion force measurement, the drug probe and drug crystal substrate were thoroughly rinsed with HPFP, followed by an Fad test in pure HPFP. […] A second set of completely independent measurements (new probe and crystal substrate) were obtained to assess the reproducibility of the reported trend in Fad."}, "[2]": {"test": "Solubility in propellant / solvent", "format": "physicochemical"}},
  "data": [
    {"smiles": "CCO", "note": "[Ethanol]", "values": [
      {"measurement": "Fad probe 1", "setting": "[1]; no surfactant, cosolvent ethanol 7% (v/v) alone, probe 1", "result": "6.31 ± 0.47", "unit": "nN"},
      {"measurement": "Fad probe 2", "setting": "[1]; no surfactant, cosolvent ethanol 7% (v/v) alone", "result": "5.01 ± 0.26", "unit": "nN"}
    ]},
    {"smiles": "CCCCCCCC/C=C\\CCCCCCCC(=O)O", "note": "[Oleic acid]", "values": [
      {"measurement": "Fad probe 1", "setting": "[1]; surfactant 1.0 mM with cosolvent ethanol 7% (v/v), probe 1", "result": "1.54 ± 0.35", "unit": "nN"},
      {"measurement": "Fad probe 1", "setting": "[1]; surfactant 1.0 mM with cosolvent ethanol 7% (v/v), probe 1, listed as oleic acid", "result": 1.54, "unit": "nN"},
      {"measurement": "Fad probe 2", "setting": "[1]; surfactant 1.0 mM with cosolvent ethanol 7% (v/v)", "result": "1.64 ± 0.21", "unit": "nN"}
    ]},
    {"smiles": "CC(C)(C)NCC(O)c1ccc(O)c(CO)c1", "note": "(stereo not shown) [salbutamol]", "values": [
      {"measurement": "Solubility in HPFP", "setting": "[2]; HPFP", "result": "negligible"},
      {"measurement": "Solubility in ethanol", "setting": "[2]; ethanol", "result": "appreciable solubility"}
    ]}
  ]
}
